From PMC7914897, “Cytotoxic Potential of a-Azepano- and 3-Amino-3,4-SeCo-Triterpenoids” (International Journal of Molecular Sciences, 2021)

Key:
SF-539 (CNS cancer) = assay: NCI-60 screen (SRB, 48 h); details: Homo sapiens; for GI50: SF-539; for IC (TGI): SF-539, 48 h, read-out: TGI; for CC50: SF-539, read-out: LC50
[1] = system: NCI-H522 (NSC lung cancer); assay: NCI-60 screen (SRB, 48 h); details: Homo sapiens; for GI50: NCI-H522; for IC (TGI): NCI-H522, 48 h, read-out: TGI
SR (Leukemia) = assay: NCI-60 screen (SRB, 48 h); format: cell-based
T-47D (Breast cancer) = assay: NCI-60 screen (SRB, 48 h); details: Homo sapiens, T47D; for IC (TGI): 48 h, read-out: TGI
EKVX (NSC lung cancer) = assay: NCI-60 screen (SRB, 48 h); details: Homo sapiens; for IC (TGI): 48 h, read-out: TGI; for CC50: read-out: LC50
786-0 (Renal cancer) = assay: NCI-60 screen (SRB, 48 h); details: for GI50 / IC (TGI): Homo sapiens; for GI50: 786-0; for IC (TGI): 786-0, 48 h, read-out: TGI
SK-MEL-5 (Melanoma) = assay: NCI-60 screen (SRB, 48 h); details: Homo sapiens; for GI50: SK-MEL-5; for IC (TGI): SK-MEL-5, 48 h, read-out: TGI
RPMI-8226 (Leukemia) = assay: NCI-60 screen (SRB, 48 h); details: Homo sapiens; for GI50: RPMI-8226; for IC (TGI): RPMI-8226, 48 h, read-out: TGI
UACC-257 (Melanoma) = assay: NCI-60 screen (SRB, 48 h); details: Homo sapiens; for GI50: UACC-257; for IC (TGI): UACC-257, 48 h, read-out: TGI
K-562 (Leukemia) = assay: NCI-60 screen (SRB, 48 h); details: Homo sapiens; for GI50: K562
CNS cancer subpanel = assay: NCI-60 screen, subpanel; details: Homo sapiens; for IC (TGI): 48 h, read-out: TGI MG_MID; for GI50: read-out: GI50 MG_MID; for CC50: read-out: LC50 MG_MID
[2] = system: NCI/ADR-RES (Ovarian cancer); assay: NCI-60 screen (SRB, 48 h); details: Homo sapiens; for IC (TGI): 48 h, read-out: TGI; for CC50: read-out: LC50
MALME-3M (Melanoma) = assay: NCI-60 screen (SRB, 48 h); details: Homo sapiens; for IC (TGI): 48 h, read-out: TGI; for CC50: read-out: LC50
SF-268 (CNS cancer) = assay: NCI-60 screen (SRB, 48 h); details: Homo sapiens; for GI50: SF-268; for IC (TGI): SF-268, 48 h, read-out: TGI; for CC50: SF-268, read-out: LC50
OVCAR-8 (Ovarian cancer) = assay: NCI-60 screen (SRB, 48 h); details: for GI50 / IC (TGI): Homo sapiens; for GI50: OVCAR-8; for IC (TGI): OVCAR-8, 48 h, read-out: TGI
Prostate cancer subpanel = assay: NCI-60 screen, subpanel; details: Homo sapiens; for IC (TGI): 48 h, read-out: TGI MG_MID; for GI50: read-out: GI50 MG_MID; for CC50: read-out: LC50 MG_MID
HL-60(TB) (Leukemia) = assay: NCI-60 screen (SRB, 48 h); format: cell-based; details: Homo sapiens; for IC (TGI): 48 h
KM12 (Colon cancer) = assay: NCI-60 screen (SRB, 48 h); details: Homo sapiens; for GI50: KM12; for IC (TGI): KM12, 48 h, read-out: TGI
MDA-MB-435 (Melanoma) = assay: NCI-60 screen (SRB, 48 h); format: cell-based; details: Homo sapiens; for GI50 / CC50: MDA-MB-435; for IC (TGI): MDA-MB-435, 48 h, read-out: TGI; for CC50: read-out: LC50 (the source's name)
SK-MEL-28 (Melanoma) = assay: NCI-60 screen (SRB, 48 h); details: Homo sapiens; for GI50: SK-MEL-28; for IC (TGI): SK-MEL-28, 48 h, read-out: TGI; for CC50: SK-MEL-28, read-out: LC50
HT29 (Colon cancer) = assay: NCI-60 screen (SRB, 48 h); details: Homo sapiens; for GI50: HT-29; for IC (TGI): HT-29, 48 h, read-out: TGI
HS 578T (Breast cancer) = assay: NCI-60 screen (SRB, 48 h); details: Homo sapiens; for IC (TGI): 48 h, read-out: TGI; for CC50: read-out: LC50
OVCAR-4 (Ovarian cancer) = assay: NCI-60 screen (SRB, 48 h); format: cell-based; details: Homo sapiens; for IC (TGI): OVCAR-4, 48 h; for GI50: read-out: GI50

## CC(C)=C1CCC=C2CC[C@]3(C)[C@H](CC[C@@H]4[C@@]5(C)CCCNC(C)(C)[C@@H]5CC[C@]43C)[C@H]21 [Compound 9]
SF-539 (CNS cancer)
  GI50: 1.69 µM
  IC (TGI): 3.13 µM
  CC50: 5.8 µM
[1]
  GI50: 1.8 µM
  IC (TGI): 3.44 µM
SR (Leukemia)
  TGI: 3.16 µM
SR (Leukemia); Homo sapiens
  GI50: 1.14 µM
T-47D (Breast cancer)
  GI50: 1.63 µM
  IC (TGI): 3.46 µM
EKVX (NSC lung cancer)
  GI50: 1.74 µM
  IC (TGI): 3.38 µM
  CC50: 6.56 µM
786-0 (Renal cancer)
  GI50: 1.71 µM
  IC (TGI): 3.48 µM
SK-MEL-5 (Melanoma)
  GI50: 1.7 µM
  IC (TGI): 3.08 µM
SK-MEL-5 (Melanoma); SK-MEL-5, read-out: LC50
  CC50: 5.56 µM
RPMI-8226 (Leukemia)
  GI50: 2.06 µM
  IC (TGI): 4.1 µM
UACC-257 (Melanoma)
  GI50: 1.86 µM
  IC (TGI): 3.63 µM
UACC-257 (Melanoma); UACC-257, read-out: LC50
  CC50: 7.09 µM
K-562 (Leukemia)
  GI50: 1.25 µM
K-562 (Leukemia); K562, 48 h, read-out: TGI
  IC (TGI): 3.5 µM
CNS cancer subpanel
  IC (TGI): 3.44 µM
  GI50: 1.83 µM
  CC50: 6.61 µM
[2]
  GI50: 1.84 µM
  IC (TGI): 3.52 µM
  CC50: 6.73 µM
MALME-3M (Melanoma)
  GI50: 1.77 µM
  IC (TGI): 3.48 µM
  CC50: 6.84 µM
SF-268 (CNS cancer)
  GI50: 1.97 µM
  IC (TGI): 3.71 µM
  CC50: 6.98 µM
OVCAR-8 (Ovarian cancer)
  GI50: 2.01 µM
  IC (TGI): 4.25 µM
OVCAR-8 (Ovarian cancer); OVCAR-8, 1 dose 10 µM
  Growth % of the Most Sensitive Cell Lines: −87.34%
Prostate cancer subpanel
  IC (TGI): 3.29 µM
  GI50: 1.78 µM
  CC50: 6.08 µM
HL-60(TB) (Leukemia)
  GI50: 1.7 µM
  IC (TGI): 3.5 µM
HL-60(TB) (Leukemia); read-out: LC50 (the source's name)
  CC50: 7.19 µM
KM12 (Colon cancer)
  GI50: 1.92 µM
  IC (TGI): 3.42 µM
MDA-MB-435 (Melanoma)
  GI50: 1.85 µM
  IC (TGI): 3.28 µM
  CC50: 5.81 µM
SK-MEL-28 (Melanoma)
  GI50: 1.81 µM
  IC (TGI): 3.32 µM
  CC50: 6.11 µM
HT29 (Colon cancer)
  GI50: 0.94 µM
  IC (TGI): 2.31 µM
HS 578T (Breast cancer)
  GI50: 1.79 µM
  IC (TGI): 4.04 µM
  CC50: 9.11 µM
OVCAR-4 (Ovarian cancer)
  IC (TGI): 3.6 µM
OVCAR-4 (Ovarian cancer); OVCAR-4
  GI50: 1.99 µM

## Cc1ccc(S(=O)(=O)OC[C@@]2(C)CC[C@]3(C)CC[C@]4(C)C(=C3C2)C=C[C@@H]2[C@@]3(C)CCCNC(C)(C)[C@@H]3CC[C@]24C)cc1 [Compound 16]
SF-539 (CNS cancer)
  GI50: 1.71 µM
  IC (TGI): 3.11 µM
  CC50: 5.66 µM
[1]
  GI50: 1.7 µM
  IC (TGI): 3.36 µM
[1]; NCI-H522, read-out: LC50
  CC50: 6.64 µM
SR (Leukemia); Homo sapiens
  GI50: 0.31 µM
SR (Leukemia); Homo sapiens, read-out: LC50 (the source's name)
  CC50: > 100 µM
T-47D (Breast cancer)
  GI50: 1.55 µM
  IC (TGI): 3.26 µM
T-47D (Breast cancer); read-out: LC50
  CC50: 6.85 µM
EKVX (NSC lung cancer)
  GI50: 1.7 µM
  IC (TGI): 3.29 µM
  CC50: 6.35 µM
786-0 (Renal cancer); 786-0, 1 dose 10 µM
  Growth % of the Most Sensitive Cell Lines: −90.69%
786-0 (Renal cancer)
  GI50: 1.84 µM
  IC (TGI): 3.51 µM
SK-MEL-5 (Melanoma)
  GI50: 1.82 µM
  IC (TGI): 3.39 µM
RPMI-8226 (Leukemia)
  GI50: 2.12 µM
  IC (TGI): 4.63 µM
RPMI-8226 (Leukemia); RPMI-8226, read-out: LC50
  CC50: > 100 µM
UACC-257 (Melanoma)
  GI50: 1.85 µM
  IC (TGI): 3.68 µM
K-562 (Leukemia)
  GI50: 1.28 µM
K-562 (Leukemia); K562, read-out: LC50
  CC50: > 100 µM
CNS cancer subpanel
  IC (TGI): 3.4 µM
  GI50: 1.77 µM
  CC50: 6.49 µM
[2]
  GI50: 2.05 µM
  IC (TGI): 4.59 µM
  CC50: > 100 µM
MALME-3M (Melanoma)
  GI50: 1.68 µM
  IC (TGI): 3.26 µM
  CC50: 6.34 µM
SF-268 (CNS cancer)
  GI50: 1.95 µM
  IC (TGI): 4.12 µM
  CC50: 8.68 µM
OVCAR-8 (Ovarian cancer)
  GI50: 2.12 µM
  IC (TGI): 4.57 µM
Prostate cancer subpanel
  IC (TGI): 3.19 µM
  GI50: 1.67 µM
  CC50: 6.1 µM
HL-60(TB) (Leukemia)
  GI50: 1.98 µM
  IC (TGI): 4.02 µM
KM12 (Colon cancer)
  GI50: 1.86 µM
  IC (TGI): 3.57 µM
KM12 (Colon cancer); KM12, read-out: LC50
  CC50: 6.85 µM
MDA-MB-435 (Melanoma)
  GI50: 1.64 µM
  IC (TGI): 3.07 µM
  CC50: 5.75 µM
SK-MEL-28 (Melanoma)
  GI50: 1.77 µM
  IC (TGI): 3.26 µM
  CC50: 5.97 µM
HT29 (Colon cancer)
  GI50: 1.48 µM
  IC (TGI): 3.08 µM
HS 578T (Breast cancer)
  GI50: 1.94 µM
  IC (TGI): 4.26 µM
  CC50: 9.37 µM
OVCAR-4 (Ovarian cancer)
  IC (TGI): 3.16 µM
OVCAR-4 (Ovarian cancer); OVCAR-4
  GI50: 1.66 µM
OVCAR-4 (Ovarian cancer); OVCAR-4, read-out: LC50 (the source's name)
  CC50: 6.02 µM
